The values that follow come from ChEMBL document CHEMBL5727147, “Pharmaceutical compounds” (2018).

A value given as a limit tells only on which side of the number the result lay.

The target of this test is T1, Serine/threonine-protein kinase Chk1 (Homo sapiens, UniProt O14757).
T1 sequence (O14757 whole entry): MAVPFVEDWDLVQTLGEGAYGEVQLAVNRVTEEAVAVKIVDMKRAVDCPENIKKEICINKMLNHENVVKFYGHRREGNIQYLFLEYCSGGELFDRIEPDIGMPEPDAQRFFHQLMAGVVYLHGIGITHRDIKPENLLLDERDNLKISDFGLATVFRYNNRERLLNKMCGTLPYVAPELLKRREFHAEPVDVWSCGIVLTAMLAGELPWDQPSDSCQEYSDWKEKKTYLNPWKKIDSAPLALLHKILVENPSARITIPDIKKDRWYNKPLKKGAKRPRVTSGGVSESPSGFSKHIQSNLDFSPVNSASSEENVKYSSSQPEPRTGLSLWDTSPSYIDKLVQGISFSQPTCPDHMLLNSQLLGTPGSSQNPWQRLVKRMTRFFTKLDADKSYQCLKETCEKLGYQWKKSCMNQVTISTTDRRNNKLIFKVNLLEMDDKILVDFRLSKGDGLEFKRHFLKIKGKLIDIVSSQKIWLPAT
Description: Kinase Inhibiting Activity Assay: Chk-1 Kinase Inhibiting ActivityThe compounds of the invention were tested for activity against Chk-1 kinase using the materials and protocols set out below.Reaction Buffer:Base Reaction buffer: 20 mM Hepes (pH 7.5), 10 mM MgCl2, 1 mM EGTA, 0.02% Brij35, 0.02 mg/ml BSA, 0.1 mM Na3VO4, 2 mM DTT, 1% DMSO*Required cofactors are added individually to each kinase reactionReaction Procedure:(i) Prepare indicated substrate in freshly prepared Base Reaction Buffer(ii) Deliver any required cofactors to the substrate solution above(iii) Deliver indicated kinase into the substrate solution and gently mix(iv) Deliver compounds in DMSO into the kinase reaction mixture(v) Deliver 33P-ATP (specific activity 0.01 μCi/μl final) into the reaction mixture to initiate the reaction.(vi) Incubate kinase reaction for 120 minutes at room temperature(vii) Reactions are spotted onto P81 ion exchange paper (Whatman #3698-915)(viii) Wash filters extensively in 0.1% phosphoric acid.(ix) Dry filters and measure counts in scintillation counterKinase Information:CHK-1 Genbank Accession # AF016582Recombinant full length construct, N-terminal GST tagged, purified from insect cells.No special measures were taken to activate this kinase.Final concentration in assay=0.5 nMSubstrate: CHKtidePeptide sequence: [[…]]Final concentration in assay=20 μM.
Regarding `COc1cc(CNC(=O)C2CC2)ccc1-c1cc(Nc2cnc(C#N)cn2)n[nH]1`, the IC50 was determined as 0.59 nM.
The value for `COc1cc(OCc2cocn2)ccc1-c1cc(Nc2cnc(C#N)cn2)n[nH]1` was < 1 nM; that for `COc1cc(C2CCCCN2C)ccc1-c1cc(Nc2cnc(C#N)cn2)n[nH]1` (stereo not drawn) was 0.51 nM.

As a reminder, the IC50 is the concentration that gives 50% inhibition.
